# Data taken from PMC10731658 (Chemical Research in Toxicology, 2023).
# Assays:
# rat plasma = details: in vivo; cited from earlier work
# HepG2 cells = test: Flow cytometric detection of cell death (Annexin V & Dead Cell Assay); assay type: cell-based, human; details: IC50 concentration
# Text: 2. Flow cytometric detection of cell death
# The microcapillary flow cytometry (Muse™ Cell Analyzer, Luminex, Austin, TX) was used to determine cell death.
# This method is based on detecting externalization of phosphatidylserine on the surface of cells undergoing apoptosis.
# The technique allows quantitative analysis of non-apoptotic, early apoptotic, late apoptotic, and necrotic cells. The reagent mixture also contains the membrane non-permeable dye 7-aminoactinomycin D. This component distinguishes necrotic and late apoptotic cells from the live and early apoptotic cells. The measurement of cell death was carried out according to manufacturer instructions after 1, 4, and 24 h incubation with tested oxime reactivators and with oxime-free medium as an untreated control. During the first day of the experiment, cells were seeded into a 24-well plate (TPP) with a density of […]. After the incubation, cells from each well were collected into the polystyrene tube (TPP) and centrifuged for 5 min at 1000 × g at room temperature. The supernatant was discarded. The cell suspensions […]
# were prepared in fresh medium DMEM. Afterward 100 μL of cell suspension were mixed with the 100 μL of Muse™ Annexin V & Dead Cell Assay reagent, and the samples were incubated for 20 min at room temperature in the dark.
# Per measurement, 5000 cells were analyzed. Each experiment was performed in triplicates and repeated three independent times. The concentration of K048, K074, K075, and K203 oximes and TBHP (positive control) used in […]
# After 1 h of incubation (Figure S-1.) with tested oxime reactivators and TBHP as the positive control, the percentage […]
# A significant change in the percentage of
# The amount of early apoptotic cells
# . On the other hand, the percentage of late apoptotic cells was […]
# control cells. The count of late apoptotic cells enlarged by 7.74, 4.71 , 4.17, 4.13, and 3.20 %, respectively. The statistical differences were also found in the percentage of necrotic cells in this time interval. The highest increment […]
# K048, K074, K075, and K203 groups when compared with control.
# K075, and K203 treated groups, respectively, when compared with control. Finally, the percentage of necrotic cells […]
# Fig. S-1 The percentage of intact (white column), early (light grey column), late apoptotic (dark grey column), and necrotic HepG2 cells (black column) determined using microcapillary flow cytometry after 1 h, 4 h and 24 h treatment with oxime acetylcholinesterase reactivators or TBHP (positive control). Control represents the cells incubated with an oxime-free culture medium. One-way analysis of variance (ANOVA) followed by Dunnetʼs multiple comparison test was used for statistical analysis by GraphPad Prism 9 software version 9.3.0. Data are expressed as means ± standard deviation (SD) of three independent measurements (n = 3). Significant differences between oxime-treated and untreated control groups (p ≤ 0.05) and marked by asterisk (*).
# 3. Stability of oximes in DMEM medium at 37 °C over 24 hours
# The stability of oximes K048, K074, K075, and K203 in DMEM medium, with concentrations corresponding to their […]
# UV, following the chromatographic conditions described by Vanova et al. (2021)13. The results over the tested time […]
# Fig. S-2 Data are expressed in percentage as means ± standard deviation (SD) of three independent measurements […]
smiles,measurement,setting,value
"NC(=O)c1cc[n+](CCCC[n+]2ccc(C=NO)cc2)cc1.[Br-].[Br-] [K048, 4-carbamoyl-1-(4-(4-((hydroxyimino)methyl)pyridin-1-ium-1-yl)butyl)pyridin-1-ium dibromide]","signs of oxidative stress (TBARS, superoxide dismutase activity)",rat plasma,no signs of oxidative stress
same,decrease in percentage of intact (live) cells vs control,HepG2 cells; 1 h,~9.71%
same,increase in early apoptotic cells vs control,HepG2 cells; 1 h,about 5.05%
same,increase in late apoptotic cells vs control,HepG2 cells; 1 h,4.17%
same,decrease in percentage of live cells vs control,HepG2 cells; 4 h,11.2%
same,increase in early apoptotic cells vs control,HepG2 cells; 4 h,5.72%
same,increase in late apoptotic cells vs control,HepG2 cells; 4 h,4.35%
same,increase in necrotic cell population vs control,HepG2 cells; 4 h,1.17%
same,decrease in percentage of intact cells vs control,HepG2 cells; 24 h,45.6%
same,increase in early apoptotic cells vs control,HepG2 cells; 24 h,18.2%
same,increase in late apoptotic cells vs control,HepG2 cells; 24 h,26.2%
"O/N=C/c1cc[n+](CCCC[n+]2ccc(/C=N/O)cc2)cc1 [K074, 1,1′-(butane-1,4-diyl)bis(4((hydroxyimino)methyl)pyridine-1-ium) dibromide]",decrease in percentage of intact (live) cells vs control,HepG2 cells; 1 h,~8.85%
same,increase in early apoptotic cells vs control,HepG2 cells; 1 h,~2.45%
same,increase in late apoptotic cells vs control,HepG2 cells; 1 h,4.71%
same,increase in necrotic cells vs control,HepG2 cells; 1 h,1.69%
same,decrease in percentage of live cells vs control,HepG2 cells; 4 h,8.3%
same,increase in early apoptotic cells vs control,HepG2 cells; 4 h,4.17%
same,increase in late apoptotic cells vs control,HepG2 cells; 4 h,3.47%
same,increase in necrotic cell population vs control,HepG2 cells; 4 h,0.67%
same,decrease in percentage of intact cells vs control,HepG2 cells; 24 h,45.5%
same,increase in early apoptotic cells vs control,HepG2 cells; 24 h,14.1%
same,increase in late apoptotic cells vs control,HepG2 cells; 24 h,31.3%
